Results from article PMC3181484 (The EMBO Journal, 2011).

Tests used:
[1] = molecular target: T1, TREK-1 (Rattus norvegicus, UniProt Q920B6); assay type: cell-based
T1 sequence (Q920B6 1-426): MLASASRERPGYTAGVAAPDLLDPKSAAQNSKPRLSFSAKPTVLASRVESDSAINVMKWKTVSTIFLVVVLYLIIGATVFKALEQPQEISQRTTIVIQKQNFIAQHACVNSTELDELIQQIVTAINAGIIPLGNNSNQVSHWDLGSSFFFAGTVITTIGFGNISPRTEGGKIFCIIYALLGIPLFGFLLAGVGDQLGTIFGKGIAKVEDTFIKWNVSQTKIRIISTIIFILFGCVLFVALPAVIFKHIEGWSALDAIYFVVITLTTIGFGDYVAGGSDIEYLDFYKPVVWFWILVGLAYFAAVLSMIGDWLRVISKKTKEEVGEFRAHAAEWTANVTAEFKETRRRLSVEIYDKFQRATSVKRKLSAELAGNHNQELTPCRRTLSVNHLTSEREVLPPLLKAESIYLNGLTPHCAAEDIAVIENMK

[2] = molecular target: T2, TRESK (Homo sapiens, UniProt Q7Z418); assay: QA ion block of TRESK currents, giant inside-out patches from Xenopus oocytes; assay type: cell-based
T2 sequence (Q7Z418 1-384): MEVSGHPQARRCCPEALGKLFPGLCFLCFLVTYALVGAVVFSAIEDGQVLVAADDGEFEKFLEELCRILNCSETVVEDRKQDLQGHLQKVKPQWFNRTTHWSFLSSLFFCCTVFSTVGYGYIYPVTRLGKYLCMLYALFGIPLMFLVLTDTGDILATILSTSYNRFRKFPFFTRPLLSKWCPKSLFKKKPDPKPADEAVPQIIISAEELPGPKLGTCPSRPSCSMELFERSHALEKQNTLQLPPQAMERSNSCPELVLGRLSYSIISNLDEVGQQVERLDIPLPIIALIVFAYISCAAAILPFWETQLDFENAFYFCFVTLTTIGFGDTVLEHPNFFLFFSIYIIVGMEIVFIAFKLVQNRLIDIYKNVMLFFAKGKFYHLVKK

In the case of `CCCC[N+](CCCC)(CCCC)CCCC` [TButA, Tetrabutylammonium bromide], the inhibition at 5000 µM ([1]; read-out: inhibition of TREK-1 current) is reported as 60%, the IC50 [2] is reported as 7 ± 1 µM and the “recovery from inhibition (kinetics)” value ([2]; TRESK, 5 μM, −80 mV) is reported as “fairly rapid”.

With `CC[N+](CC)(CC)CC` [TEA, Tetraethylammonium chloride] the IC50 [1] was ~60000 µM and the IC50 [2] was 800 ± 100 µM.
